Data from US8530404B2, “Compounds and methods for treatment of cancer” (FibroGen, Inc., priority 2005, dated 2013).

System: REDD1/RTP801 gene expression
Assay: REDD1/RTP801 gene expression in Kelly neuroblastoma cells
Type: cell-based
Settings: 20 μM, vs DMSO control
Protocol: To identify compounds useful in the methods of the present invention, the following studies were performed. The effect of compounds of the present invention on expression of various genes associated with anti-tumor activity (e.g., genes having anti-proliferative activity, genes having pro-apoptotic activity, genes having anti-tumor activity, etc.). In these experiments, the effect of compounds on BNIP3, BNIP3L, NDRG1, CDKN1C, and REDD1/RTP801 gene expression in various types of cultured tumor cells line was examined, including Hep3B cells (human hepatocellular carcinoma), Kelly neuroblastoma cells, and MCF7 cells (human breast cancer)
The effects of various compounds of the present invention on the expression of genes associated with tumor growth and progression were examined in Kelly neuroblastoma cells as follows. Kelly neuroblastoma cells were grown in RPMI media. […]
RNA was isolated from the Kelly neuroblastoma cells using a commercial kit and used for the preparation of cDNA. BNIP3, CDKN1C, and 18S RNA levels were measured using commercial kits (18S, Applied Biosystems cat#4319413E); BNIP3, Applied Biosystems cat#HS00969293 MH). […] Kelly cell NDRG1 and BNIP3L mRNA levels were measured by Affymetrix microarray in a separate study. […]

SMILES: COc1ccc(Oc2ccc3c(O)c(C(=O)NCC(=O)O)ncc3c2)cc1 [Compound C, {[4-Hydroxy-7-(4-methoxy-phenoxy)-isoquinoline-3-carbonyl]-amino}-acetic acid]
- fold-increase in REDD1/RTP801 mRNA expression: 3.6 fold
